Results taken from US20190054051A1, “DOPA Formulations for Treatments of Parkinson's Disease” (The Board of Trustees of the Leland Stanford Junior …, priority 2017, published 2019).

Tests used:
GRK6 = assay: Western blot of GRK6 in intact and lesioned striatum; type: in vivo, mice; conditions: normalized to actin
Protocol: (§1) After behavioral testing, mice again received their assigned injection and then, 45 minutes later, were decapitated under anesthesia. Tissue samples were processed as follows. Briefly, the brain was dissected, rapidly frozen on dry ice, and stored at −80° C. Striatal tissue was collected from 100 μm coronal slices cut at the level of striatum using a cryostat (Leica CM1950, Leica Biosystems Inc, Buffalo Groove, Ill.). Striatal samples from the intact and the lesioned hemisphere were separately collected in 150p1 of lysis solution (Totally RNA, Ambion, Austin, Tex.). Care was taken to make sure that the tissue samples were collected from similar regions in all the brain samples analyzed, since there are differences in the expression of GRKs from rostral to caudal CPu. […]
(§2) Western blots were quantified using band densitometry in Image J software (NIH version). […] Results are represented as group mean±SEM and analyzed using one-way or repeated-measures ANOVA (RM-ANOVA), with post hoc Bonferroni tests. The mouse cylinder test was analyzed with RM-ANOVA, with group (DOPA and DOPA-ranitidine formulations) as a between-group factor and saline vs. DOPA treatment as a within-group factor. AIMs scores were analyzed using the Kruskal Wallis test for pre-testing (DOPA injected animals) and the Mann-Whitney U test for the post-testing sessions (DOPA vs DOPA-ranitidine formulations). […]

6-OHDA lesioned mice = assay: Cylinder test, contralateral paw usage (akinesia); type: in vivo; conditions: single dose equivalent to 5 mg/Kg DOPA; DOPA = L-DOPA/Benserazide 5 and 10 mg/Kg s/c
hemiparkinsonian mice = assay: Abnormal Involuntary Movements (AIMs) after chronic L-DOPA, Example 5; type: in vivo; conditions: daily L-DOPA (mixed with benserazide) injections, post-testing 15 days
Protocol: Mice were anesthetized with 5% isoflurane (Isothesia, Henry Schein Animal Health, Dublin, Ohio) in 100% oxygen with a delivery rate of 51/minute until loss of righting reflex and mounted on a stereotaxis. The anesthesia was maintained with 1 to 1.5% isoflurane throughout the surgical procedure. Body temperature was maintained using heating pads; respiration was monitored every 10 minutes. Mice were treated with desipramine HCl (25 mg/kg i/p) 30 minutes before the infusion of 6-hydroxydopamine (6-OHDA). […]
Measurement of Abnormal Involuntary Movements (AIMs) were quantified after chronic L-DOPA administration in hemiparkinsonian mice. In the pretesting sessions, mice were given daily injections of L-DOPA/benserazide (5/10 mg/Kg s/c) for 9 days; AIMs were assessed every 20 minutes for 3 hrs after injection every third day of L-DOPA injections. Total duration of contralateral abnormal movements of the tongue-orofacial muscles and forelimb, twisting of the body (dystonia), and locomotor (rotational) behavior were scored, as illustrated in FIG. 6E. […] After five days' rest, in the post-test phase, mice were administered DOPA-benserazide or one of the four ranitidine formulations (Form IA, IB, IIA, or IIB, as defined above) daily for 15 days; AIMs were again assessed every third day.
Western blots were quantified using band densitometry in Image J software (NIH version). […]

p38 = assay: Western blot of phospho p38 and total p38 in striatum; type: in vivo, mice
Protocol: as §1, §2

animal models of PD = conditions: previously reported; cited from earlier work

Row | SMILES | GRK6 in the lesioned hemisphere versus the intact control side (GRK6) | contralateral paw usage compared to saline treatment (6-OHDA lesioned mice) | AIMs over the course of daily administration (hemiparkinsonian mice) | p38 phosphorylation in the lesioned hemisphere (p38) | L-DOPA induced dyskinesia (dyskinetic behavior following DOPA treatment) (animal models of PD)
1 | N[C@@H](Cc1ccc(O)c(O)c1)C(=O)O [L-DOPA, L-3,4-dihydroxyphenylalanine] | Only a marginal degree of down regulation | significantly increased contralateral paw usage | increasing AIMs | increased in the lesioned hemisphere only after DOPA treatment | –
2 | CN/C(=C\[N+](=O)[O-])NCCSCc1ccc(CN(C)C)o1 [Ranitidine, N-(2-[(5-[(dimethylamino)methyl]furan-2-yl)methylthio]ethyl)-N′-methyl-2-nitroethene-1,1-diamine] | enhanced the expression | – | – | – | suppress LID
